This test deals with rice blast. It counts as cell-based. The settings on record: acetone solution at 500 ppm, 1000 μl dropped on oatmeal medium; 8 mm rice blast disc; 25° C. for five days; fungal filament elongation vs acetone-only treatment.

Our source for the Preventive value values is patent US20210403455A1 (priority 2018, published 2021).

`COc1nc(-c2ccccn2)nc(F)c1C(F)(F)F` [Example 3, 6-fluoro-4-methoxy-2-(2-pyridyl)-5-trifluoromethylpyrimidine] returned a Preventive value of 80.
